Peptide text beside a SMILES is read from it.
These compounds were tested on HSV1. Settings: not given.
Type: cell-based, Human herpes simplex virus type 1
Method: African Green Monkey Kidney (Vero) cells were maintained in Eagle's minimum essential medium with Earle's salt (EMEM) and supplemented with 10% foetal calf serum (heat-inactivated), 4 mM L-glutamine, and 1% (v/v) nonessential amino acids, plus penicillin and streptomycin (100 IU/mg and […], respectively) (maintenance medium referred to as 10% EMEM). The cells were incubated at 37° C. in a humidified atmosphere of air with 5% CO2.
On harvesting, monolayers were washed in phosphate-buffered saline (PBS), and dislodged by incubating with trypsin in PBS for 30 min, before inactivating trypsin by addition of an equal volume of 10% EMEM and centrifuging at 500 g (5 min, 4° C.). Cell pellets were resuspended in 10% EMEM, prior to cell counting and seeding of 24-well plates. For antiviral assays, medium containing only 0.5% FCS was used (referred to as 0.5% EMEM).
Three separate passages of HSV1 virus were prepared by infecting Vero cells, and preparing semi-pure suspensions of virus from tissue culture supernatant and cell lysates, before freezing aliquots of virus at −85° C. Viral infectivity was assessed by carrying out plaque assays on serial dilutions of thawed aliquots (expressed in pfu/ml).
Peptides were obtained in lyophilised form from a commercial supplier (AltaBioscience, University of Birmingham or Advanced Biomedical), and were produced at 5 micromole scale. N-terminals were protected by addition of an acetyl group, and the C-terminals were protected by addition of an amide group.
Small quantities of peptide were weighed in sterile Eppendorf tubes, before addition of sufficient 0.5% EMEM to produce a 1.5 mM stock solution, which was frozen at −20° C. in aliquots.
Vero cells were seeded at 125,000 cells per well in 10% EMEM, and were incubated overnight resulting in confluent monolayers. […] Virus stocks (p3) were thawed, and diluted in 0.5% EMEM such that there were around 100 pfu in 100 μl. Each 24-well plate was inoculated separately. Firstly 100 μl of virus stock was added to the peptide or control medium arranged on a 96-well plate. This was incubated at 37° C. for ten minutes before inoculation. Medium was removed from four wells of a 24-well plate containing confluent Vero, and the 200 μl inoculum added to the appropriate well. Once all wells were treated, the 24-well plate was incubated for a further 60-80 minutes. Finally the peptide-containing inoculum was removed, and 1 ml of 1% EMEM containing 1% carboxymethylcellulose was added to each well. Plates were incubated for a further 22 hours or in some experiments 40 hours, before removal of overlay, and addition of 10% formaldehyde in PBS. After a further one hour incubation, fixative was removed, monolayers washed several times with tap water, and stained with carbol fuchsin solubilised in water. After 30 minutes stain was removed, and plates washed several times with tap water, before being air dried. Plaques were counted using an Olympus IX70 Inverting Microscope, and antiviral effect expressed as a percentage of the control value for each peptide concentration. The IC50 was calculated from plots of inhibitory effect against peptide concentration.

| SMILES | IC50 [µM] |
| --- | --- |
| CC(=O)N[C@@H](Cc1c[nH]c2ccccc12)C(=O)N[C@@H](CCCNC(=N)N)C(=O)N[C@@H](CCCCN)C(=O)N[C@@H](Cc1c[nH]c2ccccc12)C(=O)N[C@@H](CCCNC(=N)N)C(=O)N[C@@H](CCCCN)C(=O)N[C@@H](CCCNC(=N)N)C(=O)N[C@@H](Cc1c[nH]c2ccccc12)C(=O)N[C@@H](Cc1c[nH]c2ccccc12)C(=O)N[C@@H](Cc1ccccc1)C(=O)N[C@@H](CCCNC(=N)N)C(=O)N[C@@H](CCCCN)C(=O)N[C@@H](Cc1c[nH]c2ccccc12)C(=O)N[C@@H](CCCNC(=N)N)C(=O)N[C@@H](CCCCN)C(=O)N[C@@H](CCCNC(=N)N)C(=O)N[C@@H](Cc1c[nH]c2ccccc12)C(=O)N[C@@H](Cc1c[nH]c2ccccc12)C(N)=O [MU 60] (Ac-WRKWRKRWWFRKWRKRWW-NH2) | 4 |
| CC(=O)N[C@@H](CC(C)C)C(=O)N[C@@H](CCCCN)C(=O)N[C@@H](CCCCN)C(=O)N[C@@H](CC(C)C)C(=O)N[C@@H](CCCCN)C(=O)N[C@@H](CCCCN)C(=O)N[C@@H](CCCCN)C(=O)N[C@@H](CC(C)C)C(=O)N[C@@H](CC(C)C)C(=O)N[C@@H](CC(C)C)C(=O)N[C@@H](CCCCN)C(=O)N[C@@H](CCCCN)C(=O)N[C@@H](CC(C)C)C(=O)N[C@@H](CCCCN)C(=O)N[C@@H](CCCCN)C(=O)N[C@@H](CCCCN)C(=O)N[C@@H](CC(C)C)C(=O)N[C@@H](CC(C)C)C(N)=O [MU 39] (Ac-LKKLKKKLLLKKLKKKLL-NH2) | 30 |
| CC(=O)N[C@@H](CCCNC(=N)N)C(=O)N[C@@H](CC(=O)O)C(=O)N[C@@H](C)C(=O)N[C@@H](CC(=O)O)C(=O)N[C@@H](CC(=O)O)C(=O)N[C@@H](CC(C)C)C(=O)N[C@@H](CCC(N)=O)C(=O)N[C@@H](CCCCN)C(=O)N[C@@H](CCCNC(=N)N)C(=O)N[C@@H](CCCNC(=N)N)C(=O)N[C@@H](CC(=O)O)C(=O)N[C@@H](C)C(=O)N[C@@H](CC(=O)O)C(=O)N[C@@H](CC(=O)O)C(=O)N[C@@H](CC(C)C)C(=O)N[C@@H](CCC(N)=O)C(=O)N[C@@H](CCCCN)C(=O)N[C@@H](CCCNC(=N)N)C(N)=O [GIN 13, RDADDLQKR RDADDLQKR] (Ac-RDADDLQKRRDADDLQKR-NH2) | > 40 |
| CC(=O)N[C@@H](CC(C)C)C(=O)N[C@@H](CC(C)C)C(=O)N[C@@H](CCCNC(=N)N)C(=O)N[C@@H](CCCCN)C(=O)N[C@@H](CCCNC(=N)N)C(=O)N[C@@H](CC(C)C)C(=O)N[C@@H](CCCCN)C(=O)N[C@@H](CCCNC(=N)N)C(=O)N[C@@H](CC(C)C)C(=O)N[C@@H](CC(C)C)C(=O)N[C@@H](CC(C)C)C(=O)N[C@@H](CCCNC(=N)N)C(=O)N[C@@H](CCCCN)C(=O)N[C@@H](CCCNC(=N)N)C(=O)N[C@@H](CC(C)C)C(=O)N[C@@H](CCCCN)C(=O)N[C@@H](CCCNC(=N)N)C(=O)N[C@@H](CC(C)C)C(N)=O [MU 24] (Ac-LLRKRLKRLLLRKRLKRL-NH2) | 40 |
| CC(=O)N[C@@H](CCC(N)=O)C(=O)N[C@@H](CCCNC(=N)N)C(=O)N[C@@H](CCCCN)C(=O)N[C@@H](CCC(N)=O)C(=O)N[C@@H](CCCNC(=N)N)C(=O)N[C@@H](CCCCN)C(=O)N[C@@H](CCCNC(=N)N)C(=O)N[C@@H](CCC(N)=O)C(=O)N[C@@H](CCC(N)=O)C(=O)N[C@@H](CCC(N)=O)C(=O)N[C@@H](CCCNC(=N)N)C(=O)N[C@@H](CCCCN)C(=O)N[C@@H](CCC(N)=O)C(=O)N[C@@H](CCCNC(=N)N)C(=O)N[C@@H](CCCCN)C(=O)N[C@@H](CCCNC(=N)N)C(=O)N[C@@H](CCC(N)=O)C(=O)N[C@@H](CCC(N)=O)C(N)=O [MU 9] (Ac-QRKQRKRQQQRKQRKRQQ-NH2) | > 30 |
| CC(=O)N[C@@H](CCCCN)C(=O)N[C@@H](CCCNC(=N)N)C(=O)N[C@@H](CCCCN)C(=O)N[C@@H](CCCCN)C(=O)N[C@@H](CCCNC(=N)N)C(=O)N[C@@H](CCCCN)C(=O)N[C@@H](CCCNC(=N)N)C(=O)N[C@@H](CCCCN)C(=O)N[C@@H](CCCCN)C(=O)N[C@@H](CCCCN)C(=O)N[C@@H](CCCNC(=N)N)C(=O)N[C@@H](CCCCN)C(=O)N[C@@H](CCCCN)C(=O)N[C@@H](CCCNC(=N)N)C(=O)N[C@@H](CCCCN)C(=O)N[C@@H](CCCNC(=N)N)C(=O)N[C@@H](CCCCN)C(=O)N[C@@H](CCCCN)C(N)=O [MU 18] (Ac-KRKKRKRKKKRKKRKRKK-NH2) | 7.5 |
| CC(=O)N[C@@H](CC(C)C)C(=O)N[C@@H](CCCNC(=N)N)C(=O)N[C@@H](CCCCN)C(=O)N[C@@H](CCCNC(=N)N)C(=O)N[C@@H](CC(C)C)C(=O)N[C@@H](CC(C)C)C(=O)N[C@@H](CC(C)C)C(=O)N[C@@H](CCCNC(=N)N)C(=O)N[C@@H](CCCCN)C(=O)N[C@@H](CC(C)C)C(=O)N[C@@H](CCCNC(=N)N)C(=O)N[C@@H](CCCCN)C(=O)N[C@@H](CCCNC(=N)N)C(=O)N[C@@H](CC(C)C)C(=O)N[C@@H](CC(C)C)C(N)=O [GIN 2] (Ac-LRKRLLLRKLRKRLL-NH2) | > 40 |
| CC(=O)N[C@@H](Cc1c[nH]c2ccccc12)C(=O)N[C@@H](CCCNC(=N)N)C(=O)N[C@@H](CCCCN)C(=O)N[C@@H](CC(C)C)C(=O)N[C@@H](CCCNC(=N)N)C(=O)N[C@@H](CCCCN)C(=O)N[C@@H](CCCNC(=N)N)C(=O)N[C@@H](CC(C)C)C(=O)N[C@@H](CC(C)C)C(=O)N[C@@H](CC(C)C)C(=O)N[C@@H](CCCNC(=N)N)C(=O)N[C@@H](CCCCN)C(=O)N[C@@H](CC(C)C)C(=O)N[C@@H](CCCNC(=N)N)C(=O)N[C@@H](CCCCN)C(=O)N[C@@H](CCCNC(=N)N)C(=O)N[C@@H](CC(C)C)C(=O)N[C@@H](CC(C)C)C(N)=O [MU 115] (Ac-WRKLRKRLLLRKLRKRLL-NH2) | 17.5 |
| CC[C@H](C)[C@H](NC(=O)[C@H](CO)NC(=O)[C@H](CO)NC(=O)[C@H](C)NC(=O)[C@H](CCCNC(=N)N)NC(=O)[C@H](CO)NC(=O)[C@H](Cc1ccccc1)NC(=O)[C@H](Cc1c[nH]cn1)NC(=O)[C@H](CC(=O)O)NC(=O)[C@H](CCC(N)=O)NC(=O)[C@H](CCSC)NC(=O)[C@@H](NC(=O)[C@H](CC(=O)O)NC(=O)[C@H](CC(C)C)NC(=O)[C@H](CCSC)NC(=O)[C@H](Cc1c[nH]cn1)NC(C)=O)C(C)C)C(=O)N[C@H](C(=O)N[C@@H](CC(=O)O)C(=O)N[C@@H](CCC(=O)O)C(=O)N[C@@H](CC(C)C)C(N)=O)[C@@H](C)CC [GIN 29] (Ac-HMLDVMQDHFSRASSIIDEL-NH2) | 38.5 |
| CC(=O)N[C@@H](CC(C)C)C(=O)N[C@@H](CCCNC(=N)N)C(=O)N[C@@H](CCCNC(=N)N)C(=O)N[C@@H](CC(C)C)C(=O)N[C@@H](CCCNC(=N)N)C(=O)N[C@@H](CCCNC(=N)N)C(=O)N[C@@H](CCCNC(=N)N)C(=O)N[C@@H](CC(C)C)C(=O)N[C@@H](CC(C)C)C(=O)N[C@@H](CC(C)C)C(=O)N[C@@H](CCCNC(=N)N)C(=O)N[C@@H](CCCNC(=N)N)C(=O)N[C@@H](CC(C)C)C(=O)N[C@@H](CCCNC(=N)N)C(=O)N[C@@H](CCCNC(=N)N)C(=O)N[C@@H](CCCNC(=N)N)C(=O)N[C@@H](CC(C)C)C(=O)N[C@@H](CC(C)C)C(N)=O [MU 38] (Ac-LRRLRRRLLLRRLRRRLL-NH2) | > 30 |
| CC(=O)N[C@@H](CC(C)C)C(=O)N[C@@H](CCCNC(=N)N)C(=O)N[C@@H](CCCCN)C(=O)N[C@@H](CC(C)C)C(=O)N1CCC[C@H]1C(=O)N[C@@H](CCCCN)C(=O)N[C@@H](CCCNC(=N)N)C(=O)N[C@@H](CC(C)C)C(=O)N[C@@H](CC(C)C)C(=O)N[C@@H](CC(C)C)C(=O)N[C@@H](CCCNC(=N)N)C(=O)N[C@@H](CCCCN)C(=O)N[C@@H](CC(C)C)C(=O)N1CCC[C@H]1C(=O)N[C@@H](CCCCN)C(=O)N[C@@H](CCCNC(=N)N)C(=O)N[C@@H](CC(C)C)C(=O)N[C@@H](CC(C)C)C(N)=O [MU 44] (Ac-LRKLPKRLLLRKLPKRLL-NH2) | > 30 |

Same assay, conditions: Examples 2 and 3

| SMILES | efficacy for reducing HSV1 infectivity (in words) |
| --- | --- |
| CC(=O)N[C@@H](CCCNC(=N)N)C(=O)N[C@@H](CC(=O)O)C(=O)N[C@@H](C)C(=O)N[C@@H](CC(=O)O)C(=O)N[C@@H](CC(=O)O)C(=O)N[C@@H](CC(C)C)C(=O)N[C@@H](CCC(N)=O)C(=O)N[C@@H](CCCCN)C(=O)N[C@@H](CCCNC(=N)N)C(=O)N[C@@H](CCCNC(=N)N)C(=O)N[C@@H](CC(=O)O)C(=O)N[C@@H](C)C(=O)N[C@@H](CC(=O)O)C(=O)N[C@@H](CC(=O)O)C(=O)N[C@@H](CC(C)C)C(=O)N[C@@H](CCC(N)=O)C(=O)N[C@@H](CCCCN)C(=O)N[C@@H](CCCNC(=N)N)C(N)=O [GIN 13, RDADDLQKR RDADDLQKR] (Ac-RDADDLQKRRDADDLQKR-NH2) | no, or poor, efficacy |
| CC(=O)N[C@@H](Cc1ccc(O)cc1)C(=O)N[C@@H](CCCNC(=N)N)C(=O)N[C@@H](CCCCN)C(=O)N[C@@H](Cc1ccc(O)cc1)C(=O)N[C@@H](CCCNC(=N)N)C(=O)N[C@@H](CCCCN)C(=O)N[C@@H](CCCNC(=N)N)C(=O)N[C@@H](Cc1ccc(O)cc1)C(=O)N[C@@H](Cc1ccc(O)cc1)C(=O)N[C@@H](Cc1ccc(O)cc1)C(=O)N[C@@H](CCCNC(=N)N)C(=O)N[C@@H](CCCCN)C(=O)N[C@@H](Cc1ccc(O)cc1)C(=O)N[C@@H](CCCNC(=N)N)C(=O)N[C@@H](CCCCN)C(=O)N[C@@H](CCCNC(=N)N)C(=O)N[C@@H](Cc1ccc(O)cc1)C(=O)N[C@@H](Cc1ccc(O)cc1)C(N)=O [GIN 41] (Ac-YRKYRKRYYYRKYRKRYY-NH2) | also had efficacy |
| CC(=O)N[C@@H](CC(C)C)C(=O)N[C@@H](CCCNC(=N)N)C(=O)N[C@@H](CCCCN)C(=O)N[C@@H](CCCNC(=N)N)C(=O)N[C@@H](CC(C)C)C(=O)N[C@@H](CC(C)C)C(=O)N[C@@H](CC(C)C)C(=O)N[C@@H](CCCNC(=N)N)C(=O)N[C@@H](CCCCN)C(=O)N[C@@H](CC(C)C)C(=O)N[C@@H](CCCNC(=N)N)C(=O)N[C@@H](CCCCN)C(=O)N[C@@H](CCCNC(=N)N)C(=O)N[C@@H](CC(C)C)C(=O)N[C@@H](CC(C)C)C(N)=O [GIN 2] (Ac-LRKRLLLRKLRKRLL-NH2) | no, or poor, efficacy |
